Holding throughout (format): cell-based
The test system of one assay is E. coli MP-4. Description: Broth dilution MIC determination (CLSI), E. coli MP-4. Conditions: Escherichia coli, MP4; strain MP-4, broth dilution; read-out: MIC E. coli MP-4. (In general: In broth dilution the organism is exposed to a series of concentrations in liquid medium.)
Another assay relates to S. aureus MP-12. Description: Broth dilution MIC determination (CLSI), S. aureus MP-12. To be noted: Staphylococcus aureus, MP12; strain MP-12, broth dilution.
A further assay concerns P. aeruginosa MP-3. Description: Broth dilution MIC determination (CLSI), P. aeruginosa MP-3. To be noted: Pseudomonas aeruginosa, MP3; strain MP-3, broth dilution.
A further assay relates to K. pneumoniae MP-648. Description: Broth dilution MIC determination (CLSI), K. pneumoniae MP-648. Conditions: Klebsiella pneumoniae, MP648; strain MP-648, broth dilution.
A further assay deals with A. baumannii MP-15. Description: Broth dilution MIC determination (CLSI), A. baumannii MP-15. Conditions: Acinetobacter baumannii, MP15; strain MP-15, broth dilution; read-out: MIC A. baumanii MP-15.
For the next assay, the system named is K. pneumoniae MP-546. Description: Broth dilution MIC determination (CLSI), K. pneumoniae MP-546. To be noted: Klebsiella pneumoniae, MP546; strain MP-546, broth dilution.

Structures are written as SMILES. Values after ≈ are worked out from the molar mass of the structure shown.

As usually defined, the MIC is the smallest concentration in the dilution series that meets the test's criterion for growth inhibition.

On to `CO[C@]1(C)C[C@@H](C)CN(C)[C@@H](C2CCN(C(C)[C@H]3COC(C)(C)O3)CC2)COC(=O)C(C)(C)C(=O)[C@H](C)[C@H]1O[C@@H]1O[C@H](C)C[C@H](N(C)C)[C@H]1O` (mixture of isomers) [Compound 172, (3S,6R,8R,9R,10R)-3-(1-(1-((S)-2,2-dimethyl-1,3-dioxolan-4-yl)ethyl)piperidin-4-yl)-9-(((2S,3R,4S,6R)-4-(dimethylamino)-3-hydroxy-6-methyltetrahydro-2H-pyran-2-yl)oxy)-8-methoxy-4,6,8,10,12,12-hexamethyl-1-oxa-4-azacyclotridecane-11,13-dione], for which the MIC with E. coli MP-4 was less than 4 µg/mL; in the assay on S. aureus MP-12, 4 to 32 µg/mL (≈ 5.62 to 44.9 µM); with P. aeruginosa MP-3 it was more than 32 µg/mL; in the assay with K. pneumoniae MP-648, less than 4 µg/mL; in the assay on A. baumannii MP-15, more than 32 µg/mL; in the assay on K. pneumoniae MP-546, less than 4 µg/mL.

Regarding `CO[C@]1(C)C[C@@H](C)CN(C)[C@H](C2CN(Cc3ccn(C)n3)C2)COC(=O)C(C)(C)C(=O)[C@H](C)[C@H]1O[C@@H]1O[C@H](C)C[C@H](N(C)C)[C@H]1O` [Compound 16, (3R,6R,8R,9R,10R)-9-(((2S,3R,4S,6R)-4-(dimethylamino)-3-hydroxy-6-methyltetrahydro-2H-pyran-2-yl)oxy)-8-methoxy-4,6,8,10,12,12-hexamethyl-3-(1-((1-methyl-1H-pyrazol-3-yl)methyl)azetidin-3-yl)-1-oxa-4-azacyclotridecane-11,13-dione], the MIC is less than 4 µg/mL with E. coli MP-4; 4 to 32 µg/mL (≈ 6.16 to 49.2 µM) with S. aureus MP-12; more than 32 µg/mL in the assay with P. aeruginosa MP-3; 4 to 32 µg/mL (≈ 6.16 to 49.2 µM) against K. pneumoniae MP-648; more than 32 µg/mL in the assay with A. baumannii MP-15; 4 to 32 µg/mL (≈ 6.16 to 49.2 µM) against K. pneumoniae MP-546.

As to `CO[C@]1(C)C[C@@H](C)CN(C)[C@H]([C@@H]2CCN(C)C2)COC(=O)C(C)(C)C(=O)[C@H](C)[C@H]1O[C@@H]1O[C@H](C)C[C@H](N(C)C)[C@H]1O` [Compound 182, (3R,6R,8R,9R,10R)-9-(((2S,3R,4S,6R)-4-(dimethylamino)-3-hydroxy-6-methyltetrahydro-2H-pyran-2-yl)oxy)-8-methoxy-4,6,8,10,12,12-hexamethyl-3-((R)-1-methylpyrrolidin-3-yl)-1-oxa-4-azacyclotridecane-11,13-dione], the MIC with E. coli MP-4 is less than 4 µg/mL; in the assay on S. aureus MP-12, more than 32 µg/mL; against P. aeruginosa MP-3, more than 32 µg/mL; in the assay on A. baumannii MP-15 it was more than 32 µg/mL; in the assay with K. pneumoniae MP-546 it was less than 4 µg/mL.

`CO[C@]1(C)C[C@@H](C)CN(C)[C@@H](C2CN(C(=O)CN(C)C)C2)COC(=O)C(C)(C)C(=O)[C@H](C)[C@H]1O[C@@H]1O[C@H](C)C[C@H](N(C)C)[C@H]1O` [Compound 184, (3S,6R,8R,9R,10R)-9-(((2S,3R,4S,6R)-4-(dimethylamino)-3-hydroxy-6-methyltetrahydro-2H-pyran-2-yl)oxy)-3-(1-(dimethylglycyl)azetidin-3-yl)-8-methoxy-4,6,8,10,12,12-hexamethyl-1-oxa-4-azacyclotridecane-11,13-dione]: the minimum inhibitory concentration (MIC) is less than 4 µg/mL in the assay with E. coli MP-4; 4 to 32 µg/mL (≈ 6.24 to 49.9 µM) in the assay with S. aureus MP-12; more than 32 µg/mL with P. aeruginosa MP-3; more than 32 µg/mL in the assay on A. baumannii MP-15; less than 4 µg/mL with K. pneumoniae MP-546.

As to `CO[C@]1(C)C[C@@H](C)CN(C)[C@H](c2ccc(-c3cccnc3)cc2)COC(=O)C(C)(C)C(=O)[C@H](C)[C@@H]1O[C@@H]1O[C@@H](C)C[C@H](N(C)C)[C@H]1O` [Compound 188], the MIC in the assay with E. coli MP-4, in the assay with S. aureus MP-12, with P. aeruginosa MP-3, in the assay with A. baumannii MP-15 and against K. pneumoniae MP-546 was more than 32 µg/mL throughout.

For `CO[C@]1(C)C[C@@H](C)CN(C)[C@@H](C2(CCN(C)CC3CC3)CC2)COC(=O)C(C)(C)C(=O)[C@H](C)[C@H]1O[C@@H]1O[C@H](C)C[C@H](N(C)C)[C@H]1O` [Compound 196], the MIC with E. coli MP-4 is 4 to 32 µg/mL (≈ 6.14 to 49.1 µM); against S. aureus MP-12 it was more than 32 µg/mL; with P. aeruginosa MP-3, more than 32 µg/mL; with K. pneumoniae MP-648, more than 32 µg/mL; in the assay on A. baumannii MP-15, more than 32 µg/mL.

For the compound `CO[C@]1(C)C[C@@H](C)CN(C)[C@@H](C2(CCN(C)C(C)=O)CC2)COC(=O)C(C)(C)C(=O)[C@H](C)[C@H]1O[C@@H]1O[C@H](C)C[C@H](N(C)C)[C@H]1O` [Compound 197], the MIC in the assay with E. coli MP-4 was 4 to 32 µg/mL (≈ 6.25 to 50 µM); with S. aureus MP-12 it was more than 32 µg/mL; in the assay with P. aeruginosa MP-3 it was more than 32 µg/mL; with K. pneumoniae MP-648, more than 32 µg/mL; in the assay with A. baumannii MP-15, more than 32 µg/mL.

`CO[C@]1(C)C[C@@H](C)CN(C)[C@](C)(C2CCN(C)CC2)COC(=O)C(C)(C)C(=O)[C@H](C)[C@H]1O[C@@H]1O[C@H](C)C[C@H](N(C)C)[C@H]1O` [Compound 198]: the MIC in the assay on E. coli MP-4, with S. aureus MP-12, in the assay on P. aeruginosa MP-3, in the assay with K. pneumoniae MP-648 and in the assay on A. baumannii MP-15 was more than 32 µg/mL in each case.

Turning to `CO[C@]1(C)C[C@@H](C)CN(C)[C@@H](C2CCN(C[C@@H](N)CO)CC2)CO[C@@H](O)C(C)(C)C(=O)[C@H](C)[C@H]1O[C@@H]1O[C@H](C)C[C@H](N(C)C)[C@H]1O` [Compound 199], the minimal inhibitory concentration (MIC) in the assay with E. coli MP-4 is less than 4 µg/mL; against S. aureus MP-12, 4 to 32 µg/mL (≈ 6.07 to 48.6 µM); against P. aeruginosa MP-3, more than 32 µg/mL; in the assay with A. baumannii MP-15, more than 32 µg/mL; against K. pneumoniae MP-546 it was less than 4 µg/mL.

Turning to `CO[C@]1(C)C[C@@H](C)CN(C)[C@@H](C2CCN(C[C@H](CO)N(C)C)CC2)CO[C@@H](O)C(C)(C)C(=O)[C@H](C)[C@H]1O[C@@H]1O[C@H](C)C[C@H](N(C)C)[C@H]1O` [Compound 200], the MIC in the assay with E. coli MP-4 was 4 to 32 µg/mL (≈ 5.82 to 46.6 µM); against S. aureus MP-12, 4 to 32 µg/mL (≈ 5.82 to 46.6 µM); in the assay on P. aeruginosa MP-3, more than 32 µg/mL; in the assay with K. pneumoniae MP-648, more than 32 µg/mL; in the assay on A. baumannii MP-15 it was more than 32 µg/mL.

As to `CO[C@]1(C)C[C@@H](C)CN(C)[C@@H](C2CCN(C[C@@H]3COC(=O)N3)CC2)CO[C@@H](O)C(C)(C)C(=O)[C@H](C)[C@H]1O[C@@H]1O[C@H](C)C[C@H](N(C)C)[C@H]1O` [Compound 201], the MIC in the assay with E. coli MP-4 was 4 to 32 µg/mL (≈ 5.84 to 46.7 µM); in the assay with S. aureus MP-12, more than 32 µg/mL; in the assay on P. aeruginosa MP-3, more than 32 µg/mL; with K. pneumoniae MP-648, more than 32 µg/mL; with A. baumannii MP-15, more than 32 µg/mL.

On to `CO[C@]1(C)C[C@@H](C)CN(C)[C@@H](C2CCN(C[C@@H]3COC(=O)N3C)CC2)CO[C@@H](O)C(C)(C)C(=O)[C@H](C)[C@H]1O[C@@H]1O[C@H](C)C[C@H](N(C)C)[C@H]1O` [Compound 202], for which the MIC in the assay on E. coli MP-4 is 4 to 32 µg/mL (≈ 5.72 to 45.8 µM); in the assay with S. aureus MP-12, more than 32 µg/mL; with P. aeruginosa MP-3, more than 32 µg/mL; against K. pneumoniae MP-648, more than 32 µg/mL; with A. baumannii MP-15, more than 32 µg/mL.

Turning to `CO[C@]1(C)C[C@@H](C)CN(C)[C@H](C2CN(CC(=O)O)C2)COC(=O)C(C)(C)C(=O)[C@H](C)[C@H]1O[C@@H]1O[C@H](C)C[C@H](N(C)C)[C@H]1O` [Compound 203], the minimum inhibitory concentration (MIC) in the assay on E. coli MP-4 was 4 to 32 µg/mL (≈ 6.52 to 52.1 µM); with S. aureus MP-12 it was more than 32 µg/mL; with P. aeruginosa MP-3 it was more than 32 µg/mL; in the assay on K. pneumoniae MP-648, more than 32 µg/mL; with A. baumannii MP-15 it was more than 32 µg/mL.

Regarding `CO[C@]1(C)C[C@@H](C)CN[C@H](c2ccccc2)COC(=O)[C@H](C)C(=O)[C@H](C)[C@H]1O[C@@H]1OC(C)CC(N(C)C)C1O` (some centres unmarked) [Compound 204], the MIC with E. coli MP-4, in the assay with S. aureus MP-12, against P. aeruginosa MP-3, with A. baumannii MP-15 and against K. pneumoniae MP-546 was more than 32 µg/mL in each case.

With `CO[C@]1(C)C[C@@H](C)CN[C@@H](c2ccccc2)COC(=O)[C@H](C)C(=O)[C@H](C)[C@H]1O[C@@H]1OC(C)CC(N(C)C)C1O` (some centres unmarked) [Compound 205], the minimal inhibitory concentration (MIC) in the assay with E. coli MP-4, with S. aureus MP-12, against P. aeruginosa MP-3, in the assay on A. baumannii MP-15 and with K. pneumoniae MP-546 was more than 32 µg/mL in each case.

These data come from patent US20220177508A1, “C10-Cyclic Substituted 13-Membered Macrolides and Uses Thereof” (Zikani Therapeutics, Inc., priority 2018, published 2022).
